The record followed here is patent US8557286B1, “Method for producing a water-insoluble amorphous or partially amorphous controlled release matrix” (EuroCeltique, S.A., priority 2000, dated 2013).

The structures appear in SMILES notation.

The data set in a line: Release of the active agent in a paddle agitator model according to USP. The settings on record: total dose of 25 mg; pure caffeine, not retarded, filled in a capsule; FIG. 3. Type of data set: physicochemical. The text has this: In this context it is once again pointed out that the degree of destructurization into the glass state is decisive for the kinetics of the release of the active agents. […] For comparative purposes, the release of pure caffeine, not retarded and filled in a capsule has been drawn in.

For the compound `Cn1c(=O)c2c(ncn2C)n(C)c1=O` [caffeine], the “Time of release for the total dose” value is reported as “about 15 minutes”.
